29 molecules from patent US20230062100A1, “SUBSTITUTED AMINOQUINOLONES AS DGKALPHA INHIBITORS FOR IMMUNE ACTIVATION” (Bayer Aktiengesellschaft, priority 2019, published 2023) can be followed below.

The structures appear in SMILES notation.

The experiment deals with DGKα (Homo sapiens, UniProt P23743). In words: Human DGKα kinase activity inhibition assay (ADP-Glo). The experiment is classed as biochemical. Particulars: in vitro human DGKα kinase activity inhibition assay. How it is done: Human DGKα inhibitory activity of compounds of the present invention was quantified employing the human DGKα kinase activity assay as described in the following paragraphs. In essence, the enzyme activity was measured by quantification of the adenosine-di-phosphate (ADP) generated as a co-product of the enzyme reaction via the “ADP-Glo™ Kinase Assay” kit from the company Promega. This detection system works as follows: In a first step the ATP not consumed in the kinase reaction is quantitatively converted to cAMP employing an adenylate cyclase (“ADP-Glo-reagent”), then the adenylate cyclase is stopped and the ADP generated in the kinase reaction converted to ATP, which subsequently generates in a luciferase-based reaction a glow-luminescence signal (“Kinase Detection Reagent”). C-terminally FLAG-tagged, recombinant full-length human DGKα (expressed in baculovirus infected insect cells, purified using anti-Flag pulldown and size exclusion chromatography as described below, DGKα_hu_1) was used as enzyme. As substrate for the kinase 1,2-dioleoyl-sn-glycerol, reconstituted in octyl-β-D-glucopyranoside micelles, was used. For the preparation of the micelles, 1 volume of a 16.1 mM solution of 1,2-dioleoyl-sn-glycerol (Avanti, Cat. #O8001-25G) in chloroform was slowly evaporated using a nitrogen stream. Subsequently, 22.55 volumes of a 510 mM solution of octyl-β-D-glucopyranoside (Sigma-Aldrich, Cat. #O8001-10G) in 50 mM MOPS buffer (pH 7.4) were added, and the mixture was sonicated in an ultrasonic bath for 20 s. Then 35 volumes of 50 mM MOPS buffer (pH 7.4) were added to yield a solution of 0.28 mM 1,2 dioleoyl-sn-glycerol and 200 mM octyl-β-D-glucopyranoside, which was aliquoted, flash-frozen in liquid nitrogen, and stored at −20° C. until use. For each experiment, a fresh aliquot was quickly thawed and diluted 24-fold with aqueous assay buffer (described below) containing 95.7 μM adenosine triphosphate (Promega) to yield a 1.67-fold concentrated substrate solution. For the assay 50 nl of a 100-fold concentrated solution of the test compound in dimethyl sulfoxide (DMSO, Sigma) was pipetted into either a white 1536-well or a white low-volume 384-well microtiter plate (both Greiner Bio-One, Frickenhausen, Germany). […] The concentration of DGK a was adjusted depending of the activity of the enzyme lot and was chosen appropriate to have the assay in the linear range, a typical concentration is about 0.1 nM. The reaction was stopped by the addition of 2.5 μl of “ADP-Glo-reagent” (1 to 1.5 diluted with water) and the resulting mixture was incubated at 22° C. for 1 h to convert the ATP not consumed in the kinase reaction completely to cAMP. […] The amount of emitted light was taken as a measure for the amount of ADP generated and thereby for the activity of the DGKα.
Chain of DGKα (P23743 with tags, fused parts or gaps): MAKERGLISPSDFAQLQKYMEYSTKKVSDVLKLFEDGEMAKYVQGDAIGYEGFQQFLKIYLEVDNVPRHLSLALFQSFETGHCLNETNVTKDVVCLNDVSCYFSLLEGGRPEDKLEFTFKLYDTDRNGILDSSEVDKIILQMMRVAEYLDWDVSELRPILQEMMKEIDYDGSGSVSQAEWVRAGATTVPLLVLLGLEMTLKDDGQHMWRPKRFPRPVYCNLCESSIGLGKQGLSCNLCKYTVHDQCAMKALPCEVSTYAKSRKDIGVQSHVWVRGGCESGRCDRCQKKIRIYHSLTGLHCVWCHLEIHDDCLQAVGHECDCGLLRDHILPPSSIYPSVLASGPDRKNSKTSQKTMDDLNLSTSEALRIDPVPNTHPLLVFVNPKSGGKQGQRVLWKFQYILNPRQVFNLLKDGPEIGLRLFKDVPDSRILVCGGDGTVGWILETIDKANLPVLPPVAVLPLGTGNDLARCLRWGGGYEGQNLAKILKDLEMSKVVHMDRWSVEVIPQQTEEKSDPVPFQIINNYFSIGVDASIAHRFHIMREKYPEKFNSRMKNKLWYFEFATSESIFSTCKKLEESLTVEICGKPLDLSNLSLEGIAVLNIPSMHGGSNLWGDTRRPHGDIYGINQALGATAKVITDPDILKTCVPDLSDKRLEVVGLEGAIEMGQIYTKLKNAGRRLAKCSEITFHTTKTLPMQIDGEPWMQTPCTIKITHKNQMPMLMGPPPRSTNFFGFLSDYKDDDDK
Consider `Cn1c(=O)c(C(N)=O)c(N2CCC(Oc3cccc(Cl)c3)CC2)c2ccccc21` [Example 49, 4-[4-(3-chlorophenoxy)piperidin-1-yl]-1-methyl-2-oxo-1,2-dihydroquinoline-3-carboxamide], for which the IC50 was 1.7 nM. In turn, `Cn1c(=O)c(C#N)c(N2CCC(Oc3cccc4ocnc34)CC2)c2ccccc21` [Example 27, 4-{4-[(1,3-benzoxazol-4-yl)oxy]piperidin-1-yl}-1-methyl-2-oxo-1,2-dihydroquinoline-3-carbonitrile] returned an IC50 of 318 nM.

For `COc1cccc(OC2CCN(c3c(C#N)c(=O)n(C)c4ccc(C)cc34)CC2)c1` [Example 152, 4-[4-(3-methoxyphenoxy)piperidin-1-yl]-1,6-dimethyl-2-oxo-1 2-dihydroquinoline-3-carbonitrile], the concentration for half-maximal inhibition (IC50) worked out at 3.8 nM. `Cn1c(=O)c(C#N)c(N2CCC(Oc3ccccc3F)CC2)c2ccccc21` [Example 33, 4-[4-(2-fluorophenoxy)piperidin-1-yl]-1-methyl-2-oxo-1,2-dihydroquinoline-3-carbonitrile] yielded a 50% inhibitory concentration (IC50) of 13 nM. Molecule `Cn1c(=O)c(C#N)c(N2CCC(Oc3ccc(OC(F)(F)F)cc3)CC2)c2cccc(N=S(C)(C)=O)c21` [Example 134, 8-{[dimethyl(oxo)-λ^6-sulfanylidene]amino}-1-methyl-2-oxo-4-{4-[4-(trifluoromethoxy)phenoxy]piperidin-1-yl}-1,2-dihydroquinoline-3-carbonitrile] had an IC50 of 37 nM. Then `Cn1c(=O)c(C#N)c(N2CCC(Oc3ccc(F)cc3)CC2)c2cc(C#N)ccc21` [Example 146, 4-[4-(4-fluorophenoxy)piperidin-1-yl]-1-methyl-2-oxo-1,2-dihydroquinoline-3,6-dicarbonitrile], with 17 nM.

Turning to `Cn1c(=O)c(C#N)c(N2CCC(Oc3cccc(Cl)c3)CC2)c2ccc(Br)cc21` [Example 60, 7-bromo-4-[4-(3-chlorophenoxy)piperidin-1-yl]-1-methyl-2-oxo-1,2-dihydroquinoline-3-carbonitrile], the 50% inhibitory concentration (IC50) came to 27 nM. Then `Cc1ccc2c(c1)c(N1CCC(Oc3ccccc3C#N)CC1)c(C#N)c(=O)n2C` [Example 155, 4-[4-(2-cyanophenoxy)piperidin-1-yl]-1,6-dimethyl-2-oxo-1,2-dihydroquinoline-3-carbonitrile], with 9.3 nM; and `Cn1c(=O)c(C#N)c(N2CCC(Oc3ccc(F)cc3)CC2)c2cc(Br)ccc21` [Example 137, 6-bromo-4-[4-(4-fluorophenoxy)piperidin-1-yl]-1-methyl-2-oxo-1,2-dihydroquinoline-3-carbonitrile], with 1.9 nM; and `Cn1c(=O)c(C(N)=O)c(N2CCC(OCc3ccccc3F)CC2)c2ccccc21` [Example 126, 4-{4-[(2-fluorophenyl)methoxy]piperidin-1-yl}-1-methyl-2-oxo-1,2-dihydroquinoline-3-carboxamide], with 14 nM. Consider `Cn1c(=O)c(C#N)c(N2CCC(Sc3ccccc3)CC2)c2ccc(C3CC3)cc21` [Example 68, 7-cyclopropyl-1-methyl-2-oxo-4-[4-(phenylsulfanyl)piperidin-1-yl]-1,2-dihydroquinoline-3-carbonitrile], for which half-maximal inhibition (IC50) was put at 29 nM. Under `Cn1c(=O)c(C#N)c(N2CCC(Cc3ccc(F)cc3)CC2)c2ccccc21` [Example 92, 4-{4-[(4-fluorophenyl)methyl]piperidin-1-yl}-1-methyl-2-oxo-1,2-dihydroquinoline-3-carbonitrile] stands 6.2 nM; under `CN1CCN(c2ccc3c(N4CCC(Oc5cccc(Cl)c5)CC4)c(C#N)c(=O)n(C)c3c2)CC1` [Example 80, 4-[4-(3-chlorophenoxy)piperidin-1-yl]-1-methyl-7-(4-methylpiperazin-1-yl)-2-oxo-1,2-dihydroquinoline-3-carbonitrile], 534 nM.

As for `Cn1c(=O)c(C#N)c(N2CCC(COc3ccccc3Cl)CC2)c2ccccc21` [Example 120, 4-{4-[(2-chlorophenoxy)methyl]piperidin-1-yl}-1-methyl-2-oxo-1,2-dihydroquinoline-3-carbonitrile], the IC50 amounted to 51 nM. Then `Cn1c(=O)c(C#N)c(N2CCC(Oc3ccc(OC(F)(F)F)cc3)CC2)c2cccc(C#N)c21` [Example 132, 1-methyl-2-oxo-4-{4-[4-(trifluoromethoxy)phenoxy]piperidin-1-yl}-1,2-dihydroquinoline-3,8-dicarbonitrile], with 536 nM; and `Cn1c(=O)c(C#N)c(N2CCC(Cc3ccc(C#N)cc3)CC2)c2ccccc21` [Example 95, 4-{4-[(4-cyanophenyl)methyl]piperidin-1-yl}-1-methyl-2-oxo-1,2-dihydroquinoline-3-carbonitrile], with 15 nM; and `CCOC(=O)c1ccc(OC2CCN(c3c(C(N)=O)c(=O)n(C)c4ccccc34)CC2)cc1` [Example 51, ethyl 4-{[1-(3-carbamoyl-1-methyl-2-oxo-1,2-dihydroquinolin-4-yl)piperidin-4-yl]oxy}benzoate], with 6.1 nM. `Cn1c(=O)c(C#N)c(N2CCC(Oc3ccccc3)CC2)c2ccc(OC3CC3)cc21` [Example 70, 7-(cyclopropyloxy)-1-methyl-2-oxo-4-(4-phenoxypiperidin-1-yl)-1,2-dihydroquinoline-3-carbonitrile]: the midpoint of inhibition, the IC50, lay at 17 nM. Then `COc1cc(C)ccc1OC1CCN(c2c(C#N)c(=O)n(C)c3ccccc23)CC1` [Example 31, 4-[4-(2-methoxy-4-methylphenoxy)piperidin-1-yl]-1-methyl-2-oxo-1,2-dihydroquinoline-3-carbonitrile], with 6.8 nM; and `CN1CCN(c2ccc(OC3CCN(c4c(C#N)c(=O)n(C)c5ccccc45)CC3)cc2)C1=O` [Example 22, 1-methyl-4-{4-[4-(3-methyl-2-oxoimidazolidin-1-yl)phenoxy]piperidin-1-yl}-2-oxo-1,2-dihydroquinoline-3-carbonitrile], with 129 nM. Under `Cn1c(=O)c(C#N)c(N2CCC(Oc3ccc(N4CCCCC4=O)cc3)CC2)c2ccccc21` [Example 23, 1-methyl-2-oxo-4-{4-[4-(2-oxopiperidin-1-yl)phenoxy]piperidin-1-yl}-1,2-dihydroquinoline-3-carbonitrile] stands 181 nM. `Cn1c(=O)c(C#N)c(N2CCC(Oc3ccc(OC(F)(F)F)cc3)CC2)c2ccccc21` [Example 2, 1-methyl-2-oxo-4-{4-[4-(trifluoromethoxy)phenoxy]piperidin-1-yl}-1,2-dihydroquinoline-3-carbonitrile] had an IC50 of 3.9 nM. Under `Cc1cccc(OC2CCN(c3c(C#N)c(=O)n(C)c4ccccc34)CC2)c1` [Example 3, 1-methyl-4-[4-(3-methylphenoxy)piperidin-1-yl]-2-oxo-1,2-dihydroquinoline-3-carbonitrile] stands 6.2 nM. Consider `COc1ccccc1CC1CCN(c2c(C#N)c(=O)n(C)c3ccccc23)CC1` [Example 94, 4-{4-[(2-methoxyphenyl)methyl]piperidin-1-yl}-1-methyl-2-oxo-1,2-dihydroquinoline-3-carbonitrile], for which the IC50 was 28 nM. Under `Cn1c(=O)c(C#N)c(N2CCC(Oc3ccccc3C(F)(F)F)CC2)c2ccccc21` [Example 36, 1-methyl-2-oxo-4-{4-[2-(trifluoromethyl)phenoxy]piperidin-1-yl}-1,2-dihydroquinoline-3-carbonitrile] stands 164 nM; under `Cn1c(=O)c(C#N)c(N2CCC(Oc3cccc(C(F)(F)F)c3)CC2)c2ccccc21` [Example 15, 1-methyl-2-oxo-4-{4-[3-(trifluoromethyl)phenoxy]piperidin-1-yl}-1,2-dihydroquinoline-3-carbonitrile], 14 nM. Then `Cn1c(=O)c(C#N)c(N2CCC(Oc3ccc(N4CCOCC4)cc3)CC2)c2ccccc21` [Example 20, 1-methyl-4-{4-[4-(morpholin-4-yl)phenoxy]piperidin-1-yl}-2-oxo-1,2-dihydroquinoline-3-carbonitrile], with 81 nM. Take `COCCOc1ccc(OC2CCN(c3c(C#N)c(=O)n(C)c4ccccc34)CC2)cc1` [Example 44, 4-{4-[4-(2-methoxyethoxy)phenoxy]piperidin-1-yl}-1-methyl-2-oxo-1,2-dihydroquinoline-3-carbonitrile]: the IC50 came to 45 nM. `Cn1c(=O)c(C#N)c(N2CCC(Oc3cccc(Cl)c3)CC2)c2ccc(C3COC3)cc21` [Example 73, 4-[4-(3-chlorophenoxy)piperidin-1-yl]-1-methyl-7-(oxetan-3-yl)-2-oxo-1,2-dihydroquinoline-3-carbonitrile] had a half-inhibitory concentration (IC50) of 13 nM.
